# Experimental data reported in patent US6472392B1, “Triazole compounds and the use thereof as dopamine-D3 -ligands” (Abbott Laboratories, priority 1997, dated 2002).
compound,measurement,value
"Cn1c(C=CCCN2CCN(c3cc(C(C)(C)C)nc(C(C)(C)C)n3)CC2)nnc1-c1ccccc1 [Example 21, 3-{4-[4-(2,6-Di-t-butylpyrimidin-4-yl)piperazin-1-yl]but-1-enyl}-4-methyl-5-phenyl-1,2,4-(4H)-triazole]",melting point,156 to 161 °C
"Cn1c(CCCCN2CCN(c3cc(C(C)(C)C)nc(C(C)(C)C)n3)CC2)nnc1-c1ccccc1 [Example 22, 3-{4-[4-(2,6-Di-t-butylpyrimidin-4-yl)piperazin-1-yl]butyl}-4-methyl-5-phenyl-1,2,4-(4H)-triazole]",melting point,144 to 145 °C
